The NIST ThermoML archive (doi:10.1016/j.fluid.2010.07.005)
Numbers after ± are expanded uncertainties.

Tests used:
[1] = excess molar enthalpy (molar enthalpy of mixing); xn = mol fraction of the nth substance listed; conditions: 298.15 K; 101.33 kPa; Liquid; Flow calorimetry; x2 = 0
[2] = molar heat capacity at constant pressure; conditions: 101.33 kPa, Liquid, Vacuum adiabatic calorimetry
[3] = 101.33 kPa, Liquid; for viscosity: Capillary tube (Ostwald / Ubbelohde) method; for mass density: Speicific gravity balance

Question: Which excess molar enthalpy [1] does the source give for O [water] + COP(=O)([O-])OC.Cn1cc[n+](C)c1 here?
Answer: Its excess molar enthalpy is 0 ± 0.23 kJ/mol.

Question: Which excess molar enthalpy [1] does the source give for CO [methanol] + COP(=O)([O-])OC.Cn1cc[n+](C)c1 here?
Answer: The excess molar enthalpy was 0 ± 0.022 kJ/mol.

Question: With CCO [ethanol] + COP(=O)([O-])OC.Cn1cc[n+](C)c1 as the molecule, how does the excess molar enthalpy [1] read?
Answer: Its excess molar enthalpy is 0 ± 0.036 kJ/mol.

Question: For COP(=O)([O-])OC.Cn1cc[n+](C)c1 [1,3-dimethylimidazolium dimethylphosphate], which “molar heat capacity at constant pressure” value ([2]; 298.15 K) is on record?
Answer: Its value is 282.83 ± 13 J/K/mol.

Question: And the “molar heat capacity at constant pressure” value ([2]; 303.15 K)?
Answer: The value was 296.61 ± 13 J/K/mol.

Question: What about the “molar heat capacity at constant pressure” value ([2]; 313.15 K) of the same molecule?
Answer: The value was 310.83 ± 13 J/K/mol.

Question: And the “molar heat capacity at constant pressure” value ([2]; 323.15 K)?
Answer: The value was 321.05 ± 13 J/K/mol.

Question: What about the viscosity ([3]; 298.15 K) of the same molecule?
Answer: Its viscosity is 271.86 ± 8 mPa·s.

Question: And the mass density ([3]; 298.15 K)?
Answer: Its mass density is 1258.7 ± 1.2 kg/m3.

Question: What about the viscosity ([3]; 303.15 K) of the same molecule?
Answer: Its viscosity is 188.3 ± 4.5 mPa·s.

Question: And the mass density ([3]; 303.15 K)?
Answer: The mass density was 1255.9 ± 1.2 kg/m3.

Question: And the viscosity ([3]; 308.15 K)?
Answer: Its viscosity is 139.49 ± 2.6 mPa·s.

Question: And the mass density ([3]; 308.15 K)?
Answer: The mass density was 1253 ± 1.2 kg/m3.

Question: What about the viscosity ([3]; 313.15 K) of the same molecule?
Answer: Its viscosity is 110.25 ± 1.6 mPa·s.

Question: What about the mass density ([3]; 313.15 K) of the same molecule?
Answer: The mass density was 1249.1 ± 1.2 kg/m3.

Question: What about the viscosity ([3]; 318.15 K) of the same molecule?
Answer: The viscosity was 84.44 ± 0.88 mPa·s.

Question: What about the mass density ([3]; 318.15 K) of the same molecule?
Answer: The mass density was 1245.2 ± 1.2 kg/m3.

Question: What about the viscosity ([3]; 323.15 K) of the same molecule?
Answer: Its viscosity is 69.99 ± 0.59 mPa·s.

Question: What about the mass density ([3]; 323.15 K) of the same molecule?
Answer: The mass density was 1241.5 ± 1.2 kg/m3.
